Experiments:
[1] = Dissipation of 14C labelled benzyl alcohol from the injection site; assay type: in vivo
From the text: This finding is indeed surprising for the following reasons. • 1. […] It is believed that the tissue irritation/inflammation was due to the presence of fulvestrant in the form of solid particles. The release profile appeared to be determined by the extent of inflammation/irritation present at the injection site and this was variable and difficult to control.

[2] = tested on: uterus; settings: intact adult rats, cited from earlier work
[3] = Solubility of fulvestrant in different solvents; assay type: physicochemical; settings: Water, 25° C.
[4] = tested on: human breast cancer cells; settings: block of oestradiol-stimulated growth, human breast cancer cells in vitro; cited from earlier work

| time to removal from the body after administration [1] [h] | SOLUBILITY [3] [mgml^−1] | SMILES | effect on bone density ([2]; at dose giving maximum regression of the uterus) | regression of the uterus [2] | potency and effectiveness compared with tamoxifen [4] |
| --- | --- | --- | --- | --- | --- |
| ≤ 24 |  | OCc1ccccc1 [^14C labelled benzyl alcohol, benzyl alcohol] |  |  |  |
|  | 0.001 | C[C@]12CC[C@@H]3c4ccc(O)cc4C[C@@H](CCCCCCCCC[S+]([O-])CCCC(F)(F)C(F)(F)F)[C@H]3[C@@H]1CC[C@@H]2O (stereo partly drawn) [fulvestrant, 7α-[9-(4,4,5,5,5-Pentafluoropentylsulphinyl)nonyl]oestra-1,3-5(10)-triene-3,17β-diol] | does not adversely affect | maximum regression | more potent and more effective than tamoxifen |
